Tests used:
[1] = system: S2 subunit of BA.2, BA.2.75, BA.4, BA.5, BQ.1, XBB, XBB.1.5, XBB.1.16, CH.1.1, XBB.1.9, XBB.2.3 and EG.5.1; type: binding, SARS‐CoV‐2 Omicron variants
[2] = system: S2 subunit of Omicron variants; type: binding, SARS‐CoV‐2 Omicron variants

Sequence: LLGDFFRKSKEKIGKEFKRIVQRIKDFLRNLVPRTES [LL‐37]
- binding of S2 subunit to immobilised LL‐37 [1]: much lower binding
- S2 subunit bound to plasma membrane with facilitation by LL‐37 [2]: S2 subunit of SARS‐CoV‐2 rather than Omicron variants obviously bound

Source: paper PMC12686126, “LL‐37 Inhibits TMPRSS2‐Mediated S2' Site Cleavage and SARS‐CoV‐2 Infection but Not Omicron Variants” (Cell Proliferation, 2025)
